Data published in the supplement of paper PMC10307832.

Compound: CCn1c(-c2nonc2N)nc2c(C#CC(C)(C)O)ncc(OC[C@H]3CCCNC3)c21 + Nc1ncn([C@H]2C[C@H](O)[C@@H](CO)O2)c(=O)n1 [Decitabine] (partner 2 µM)
Test: relative viability (nuclei count vs DMSO), 5 days (fraction); higher = more cells survive
Conditions: first compound 0.01 µM
How it was run: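 Relative viability equals treated-well nuclei counts divided by vehicle-well nuclei counts. Counts came from 4× images of lung cancer cell lines grown in 1536-well plates for 5 days after pin-tool dosing on the day after seeding. Dosing used one drug alone or a fixed anchor-drug dose plus five library-drug doses (not always all listed) in √10 steps, and values are medians of duplicate plates.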

Cell Line	relative viability
NCI-H520	0.483
NCI-H2126	0.505
EMC-BAC-2	0.966
NCI-H2085	0.489
HCC-366	0.342
NCI-H1666	0.71
NCI-H596	1.05
LK-2	0.267
NCI-H2087	0.327
NCI-H2342	0.747
SK-MES-1	0.329
H3255	0.614
COR-L23	0.429
COR-L 105	0.651
LOU-NH91	0.821
ChaGo-K-1	0.483
NCI-H2170	0.503
NCI-H2405	0.782
HOP-62	0.18
HCC-44	0.957
A549	0.207
SW 900	0.425
NCI-H1648	0.565
NCI-H2009	0.35
NCI-H661	0.504
SK-LU-1	0.669
NCI-H2023	0.207

Same assay, conditions: first compound 0.03162 µM

Cell Line	relative viability
NCI-H522	0.675
NCI-H727	0.976
NCI-H1650	0.455
NCI-H1993	0.643
SW 1573	0.388
NCI-H838	0.416
LCLC-103H	0.797
NCI-H520	0.47
NCI-H2126	0.608
NCI-H2085	0.517
HCC-366	0.34
NCI-H1666	0.657
LK-2	0.302
NCI-H2342	0.692
SK-MES-1	0.397
H3255	0.58

Cell Line	relative viability
COR-L23	0.353
COR-L 105	0.681
LOU-NH91	0.788
ChaGo-K-1	0.5
NCI-H2170	0.445
NCI-H2405	0.75
HOP-62	0.22
HCC-44	0.888
A549	0.202
SW 900	0.442
NCI-H1648	0.482
NCI-H2009	0.469
NCI-H661	0.591
SK-LU-1	0.639
NCI-H2023	0.202

Same assay, conditions: first compound 0.1 µM

Cell Line	relative viability
NCI-H522	0.682
NCI-H727	0.943
NCI-H1650	0.522
NCI-H1993	0.599
SW 1573	0.448
NCI-H838	0.482
LCLC-103H	0.737
NCI-H520	0.387
NCI-H2126	0.583
EMC-BAC-2	0.996
NCI-H2085	0.601
HCC-366	0.361
NCI-H1666	0.809
NCI-H596	0.961
LK-2	0.294
NCI-H2087	0.283
NCI-H2342	0.773

Cell Line	relative viability
SK-MES-1	0.399
H3255	0.639
COR-L23	0.348
COR-L 105	0.651
LOU-NH91	0.891
ChaGo-K-1	0.559
NCI-H2170	0.475
NCI-H2405	0.721
HOP-62	0.246
HCC-44	0.902
A549	0.292
SW 900	0.502
NCI-H1648	0.464
NCI-H2009	0.354
NCI-H661	0.513
SK-LU-1	0.75
NCI-H2023	0.221

Same assay, conditions: first compound 0.3162 µM

Cell Line	relative viability
NCI-H522	0.679
NCI-H727	0.825
NCI-H1650	0.208
NCI-H1993	0.63
SW 1573	0.42
NCI-H838	0.44
LCLC-103H	0.716
NCI-H520	0.359
NCI-H2126	0.54
EMC-BAC-2	0.916
NCI-H2085	0.58
HCC-366	0.302
NCI-H1666	0.834
NCI-H596	0.929
LK-2	0.312
NCI-H2087	0.208
NCI-H2342	0.667

Cell Line	relative viability
SK-MES-1	0.353
H3255	0.546
COR-L23	0.352
COR-L 105	0.749
LOU-NH91	0.73
ChaGo-K-1	0.487
NCI-H2170	0.454
NCI-H2405	0.692
HOP-62	0.193
HCC-44	0.968
A549	0.27
SW 900	0.484
NCI-H1648	0.491
NCI-H2009	0.342
NCI-H661	0.561
SK-LU-1	0.611
NCI-H2023	0.245

Same assay, conditions: first compound 1 µM

Cell Line	relative viability
NCI-H522	0.716
NCI-H727	0.714
NCI-H1650	0.442
NCI-H1993	0.677
SW 1573	0.337
NCI-H838	0.497
LCLC-103H	0.781
NCI-H520	0.332
NCI-H2126	0.548
EMC-BAC-2	1.04
NCI-H2085	0.556
HCC-366	0.335
NCI-H1666	0.735
NCI-H596	1.03
LK-2	0.307
NCI-H2087	0.326
NCI-H2342	0.625

Cell Line	relative viability
SK-MES-1	0.378
H3255	0.6
COR-L23	0.38
COR-L 105	1.58
LOU-NH91	0.779
ChaGo-K-1	0.533
NCI-H2170	0.53
NCI-H2405	0.647
HOP-62	0.226
HCC-44	0.985
A549	0.215
SW 900	0.42
NCI-H1648	0.498
NCI-H2009	0.39
NCI-H661	0.543
SK-LU-1	0.574
NCI-H2023	0.236
